Measured values published in publication PMC3519477, “Structures of the Human Poly (ADP-Ribose) Glycohydrolase Catalytic Domain Confirm Catalytic Mechanism and Explain Inhibition by ADP-HPD Derivatives” (PLoS ONE, 2012).
Where two headings read alike, the source gives them in different places. Each block holds one compound with its values, some of them ahead of it.

Experiments:
[1] = biological target: T1, hPARG4 (Homo sapiens, UniProt Q86W56); test: SPR competition experiments against saturating ADP-HPD; format: binding
T1 construct: a codon optimized gene encoding human PARG(448–976) was synthesized by GeneArt; 6His (TEV-cleavable) (N, cleaved yes); made in house; host or cells: E. coli BL21 (DE3) GOLD
Description: The ADPR and ADP-HPD complex structures superpose almost exactly (r.m.s. deviation 0.14 Å over all Cα; 0.47 Å over all atoms within the binding pocket (MOE, Chemical Computing Group)). ADPR and ADP-HPD engage in equivalent interactions, with the exception of loss of an H-bond between the 1″-OH and Glu756 as this OH is not present in ADP-HPD. […] We speculate that the bound conformation of ADP-HPD is stabilised relative to ADPR by dipole-dipole interactions between the HPD NH2 ^+ and a negatively charged α-phosphate oxygen and/or the oxygen linking the β-phosphate to ribose” (4.1 Å and 2.9 Å separation respectively, Figure 4b). In addition, the α-phosphate oxygen H-bonding network may be strengthened in the ADP-HPD complex by the charged interaction with the pyrrolidine NH2 ^+. This oxygen accepts H-bonds from the backbone NH of Gln754 and a conserved water molecule, and is shielded from solvent by Val753. Binding of ADP-HPD is primarily enthalpy driven (Table 1).
Studies of PARG inhibitor binding were conducted at 25°C. Samples were prepared as 5 fold dilutions in the experimental running buffer (20 mM HEPES pH 7, 150 mM NaCl, 2 mM DTT, 0.005% P20, 0.02% NaN3 with 5% DMSO). Surface regeneration was achieved using dissociation for a time period allowing the response to return to baseline. Control injections of a fixed, saturating ADP-HPD concentration of 20 µM were interspersed with injections of compound to allow monitoring of the functionality of the protein surface. To calculate affinities, SPR equilibrium binding data, consisting of Req values from 8–10 point concentration series, were analyzed by fitting a simple 1∶1 binding model to yield Rmax and Kd values using non-linear regression analysis in Grafit 6 (Erithacus Software).

[2] = Cell activity of PARG inhibitor (data not shown); format: cell-based
[3] = biological target: T2, hPARG4 (hPARG(448–976)) (Homo sapiens, UniProt Q86W56); test: Isothermal titration calorimetry; format: binding; conditions: 25°C
T2 construct: a codon optimized gene encoding human PARG(448–976) was synthesized by GeneArt; 6His (TEV-cleavable) (N, cleaved yes); made in house; host or cells: E. coli BL21 (DE3) GOLD
Experimental: This was carried out using an iTC200 instrument (Microcal, GE Healthcare, Northampton, MA) at 25°C in the following buffer: 20 mM HEPES pH 7, 150 mM NaCl, 2 mM DTT, 0.02% NaN3. Protein concentrations were typically 30 µM in the cell with ligand concentrations of at least 10 fold this concentration in the syringe. Typical injection protocols of 19×2 µL injections, spaced at 2 or 3 minute intervals were used. Curves were fitted by non-linear regression analysis using a one-site binding model provided by MicroCal Origin software (version 7).

[4] = biological target: T3, hPARG (full-length recombinant hPARG(1–976)-6His) (Homo sapiens, UniProt Q86W56); test: PARG activity HTRF assay (PAR-PARP1 hydrolysis); format: biochemical
T3 construct: direct expression of hPARG(1–976) with a C-terminal hexahistidine tag; made in house; host or cells: E. coli BL21 (DE3) GOLD
Experimental: PARG activity was assessed using an HTRF assay which will be described in detail elsewhere (Bennett et al, manuscript in preparation). […] Following this incubation, biotinylated NAD^+ at a molar ratio to PARylated PARP1 of 0.7∶1 was added and incubation continued for 5 minutes. The reaction was terminated by addition of a PARP1-specific inhibitor to a final concentration of 4.7 µM. The solution was dialysed overnight to remove excess biotinylated NAD^+ and compound, and stored at −80°C. PARG activity was measured in a 384-well format HTRF assay using the biotin-labelled PARylated PARP1 as a substrate. Residual biotinylated PARylated PARP1 was detected by addition of a detection mix containing anti-6His–XL antibody (Cisbio) and streptavidin europium cryptate (Cisbio), and then monitoring the ratio of emission at 665 nm to 612 nm upon excitation at 340 nm.
Inhibition by ADP-HPD was measured using serial dilutions over the range 100 µM to 100 pM compound from a 1 mM stock in water. Assays contained 30 pM purified recombinant PARG and 9.67 nM PAR-PARP1 in a final volume of 9 µL assay buffer (50 mM MOPS pH 7.4, 0.1 mg/mL BSA, 3 mM EDTA, 0.4 mM EGTA, 1 mM DTT, 0.01% v/v Tween20, 50 mM KCl). Reactions were allowed to proceed for 8 minutes prior to the addition of 3 µL detection reagents (50 mM MOPS pH 7.4, 0.1 mg/mL BSA, 0.1 M Potassium Fluoride, 14 nM anti-6HIS-XL antibody, 0.75 nM Streptavidin Europium Cryptate). IC50s were calculated using a time-point of 1.5 hours from the addition of detection reagents.
Here, 17.5 nL of ADP-HPD ([…]) or OA-ADP-HPD (21.43 mM in DMSO) were dispensed by an ECHO555 (Labcyte Inc.) into Greiner white 1536-well plates over the specified range: ADP-HPD (100 µM to 100 pM) and OA-ADP-HPD (500 µM to 30 nM).
ADP-HPD and OA-ADP-HPD inhibition data were visualised in Prism (GraphPad), and IC50s derived from a non-linear regression analysis of the values from three separate experiments (run in triplicate) fit to a sigmoidal dose-response curve.

[5] = test system: TcPARG Glu114Ala mutant; parameters: method as in supplemental 4 (Slade et al., 2011); conditions: ref supplemental 4 (Slade et al., 2011); cited from earlier work
[6] = test system: TcPARG Glu115Ala mutant; parameters: method as in supplemental 4 (Slade et al., 2011); conditions: ref supplemental 4 (Slade et al., 2011); cited from earlier work
[7] = biological target: bPARG; parameters: method as in PMID 7830282; conditions: read-out: KD, reported value for bPARG; cited from earlier work

T1 sequence (Q86W56 448-976): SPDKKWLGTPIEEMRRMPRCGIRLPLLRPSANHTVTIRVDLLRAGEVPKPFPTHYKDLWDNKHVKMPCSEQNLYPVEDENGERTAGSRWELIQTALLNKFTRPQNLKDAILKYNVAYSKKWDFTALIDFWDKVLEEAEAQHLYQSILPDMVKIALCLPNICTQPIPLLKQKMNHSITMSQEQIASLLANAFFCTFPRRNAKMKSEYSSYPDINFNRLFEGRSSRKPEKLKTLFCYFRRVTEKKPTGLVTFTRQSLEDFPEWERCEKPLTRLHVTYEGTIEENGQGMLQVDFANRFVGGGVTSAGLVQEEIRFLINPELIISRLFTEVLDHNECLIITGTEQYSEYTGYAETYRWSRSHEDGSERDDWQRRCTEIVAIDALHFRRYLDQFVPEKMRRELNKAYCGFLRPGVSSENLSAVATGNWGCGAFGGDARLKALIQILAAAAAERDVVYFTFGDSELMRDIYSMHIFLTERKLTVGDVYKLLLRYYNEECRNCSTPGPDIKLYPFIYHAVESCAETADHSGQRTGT
T2 sequence (Q86W56 448-976): as above
T3 sequence (Q86W56 whole entry): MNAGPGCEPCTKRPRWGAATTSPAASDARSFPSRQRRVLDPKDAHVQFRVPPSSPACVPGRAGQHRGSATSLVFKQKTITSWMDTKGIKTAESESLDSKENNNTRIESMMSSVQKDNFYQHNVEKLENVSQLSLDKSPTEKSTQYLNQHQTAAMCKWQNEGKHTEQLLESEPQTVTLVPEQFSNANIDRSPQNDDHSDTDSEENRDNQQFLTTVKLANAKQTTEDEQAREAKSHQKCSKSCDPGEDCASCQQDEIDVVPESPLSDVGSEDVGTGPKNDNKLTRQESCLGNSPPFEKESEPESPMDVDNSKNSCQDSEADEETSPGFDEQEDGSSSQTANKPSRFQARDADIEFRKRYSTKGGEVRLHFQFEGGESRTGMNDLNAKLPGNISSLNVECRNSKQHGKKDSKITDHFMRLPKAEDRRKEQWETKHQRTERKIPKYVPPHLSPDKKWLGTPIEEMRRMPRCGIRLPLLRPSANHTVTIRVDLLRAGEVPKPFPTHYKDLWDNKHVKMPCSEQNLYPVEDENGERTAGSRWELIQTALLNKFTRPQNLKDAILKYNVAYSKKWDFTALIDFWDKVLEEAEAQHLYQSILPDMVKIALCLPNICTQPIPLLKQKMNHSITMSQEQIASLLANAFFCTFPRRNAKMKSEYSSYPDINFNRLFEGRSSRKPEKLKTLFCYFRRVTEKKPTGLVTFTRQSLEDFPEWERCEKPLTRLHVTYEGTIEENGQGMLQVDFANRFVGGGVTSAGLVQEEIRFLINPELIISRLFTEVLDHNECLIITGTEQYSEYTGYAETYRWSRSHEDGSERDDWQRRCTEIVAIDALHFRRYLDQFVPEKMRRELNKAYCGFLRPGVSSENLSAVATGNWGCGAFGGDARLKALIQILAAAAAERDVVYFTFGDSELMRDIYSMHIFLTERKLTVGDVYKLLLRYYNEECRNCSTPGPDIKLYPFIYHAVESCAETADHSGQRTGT

- drop-off in affinity upon removal of the β-phosphate-ribose moiety ([1]; AMP compared with ADPR): 10 fold
- Kd ([1]; same competition-based method as for ADPR, n = 1, read-out: approximate KD (SPR competition)): ~380 µM
SMILES: Nc1ncnc2c1ncn2[C@@H]1O[C@H](COP(=O)(O)O)[C@@H](O)[C@H]1O [AMP]

- Kd ([3]; read-out: KD (ITC)): 0.8 ± 0.1 µM
- ΔG ([3]; ITC): -8.34 ± 0.072 kcal/mol
- ΔH ([3]; ITC): -12.1 ± 0.335 kcal/mol
- ΔS ([3]; ITC): −52.9±4.7 J/mol/K
- completeness of inhibition of hPARG activity in vitro ([4]; compared with ADP-HPD, used as maximally-inhibited control in HTS assay): more complete inhibitor
- IC50 ([4]; hPARG, HTS campaign format, 3 µL reaction, 1536-well, 10 min, read-out: IC50): 16.3 ± 1.1 µM
SMILES: CCCCCCCCNc1nc2c(N)ncnc2n1[C@@H]1O[C@H](COP(=O)(O)OP(=O)(O)OC[C@H]2NC[C@H](O)[C@@H]2O)[C@@H](O)[C@H]1O [OA-ADP-HPD, 8-n-octyl-amino-ADP-HPD]
- cell activity [2]: unable to show cell activity

SMILES: Nc1ncnc2c1ncn2C1OC(COP(=O)(O)OP(=O)(O)OCC2OC(O)C(O)C2O)C(O)C1O (centres unmarked) [ADPR, ADP-ribose]
- decrease in affinity versus wild-type [5]: No detectable activity; 10-fold decrease in ADPR affinity
- effect of mutation on affinity [6]: No detectable activity; no effect on ADPR affinity
- weaker affinity relative to ADP-HPD ([1]; binding to hPARG, compared with ADP-HPD): ~1000 fold
- Kd ([1]; hPARG4-ADP-HPD complex formed in situ, increasing concentrations of compound, data not shown, read-out: KD (SPR competition)): ~40 µM
- Kd [7]: 120 µM
